Six compounds from patent publication US6936585B2, “Corticotropin releasing factor 2 receptor agonists” (priority 2002, dated 2005) can be followed below.

Each structure is given as a SMILES string. Peptide text beside a SMILES is read from it. A value given as a limit tells only on which side of the number the result lay.

In one test the target is T1, CRF2R (Homo sapiens, UniProt Q13324).
T1 sequence (Q13324 1-411): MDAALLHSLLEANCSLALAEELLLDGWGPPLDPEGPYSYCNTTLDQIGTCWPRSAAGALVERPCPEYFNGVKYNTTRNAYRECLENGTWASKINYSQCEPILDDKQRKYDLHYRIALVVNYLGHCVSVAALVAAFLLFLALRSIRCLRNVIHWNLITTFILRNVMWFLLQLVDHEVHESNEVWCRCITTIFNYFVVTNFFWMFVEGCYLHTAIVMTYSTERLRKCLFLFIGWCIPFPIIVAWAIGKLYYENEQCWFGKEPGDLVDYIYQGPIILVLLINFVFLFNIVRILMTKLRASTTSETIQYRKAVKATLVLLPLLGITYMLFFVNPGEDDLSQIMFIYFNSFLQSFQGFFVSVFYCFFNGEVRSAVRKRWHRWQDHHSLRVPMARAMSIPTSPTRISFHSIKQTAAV
Nature of the test: CRF2R agonist activation (EC50 / Emax), called comparative CRF binding. It counts as cell-based. To be noted: for EC50: read-out: CRF2R EC50; for Emax: read-out: CRF2R Emax. An outline of the steps: (§1)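 Receptor-expressing cells are contacted with test peptide or the vehicle it is dissolved in. Lysates are then assayed for cAMP, or expression of a CRE-coupled reporter is quantitated. Engineered cells carrying receptor-G-protein fusions may replace full-length receptors.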

The target of another test is T2, CRF1R (Homo sapiens, UniProt P34998).
T2 sequence (P34998 24-415): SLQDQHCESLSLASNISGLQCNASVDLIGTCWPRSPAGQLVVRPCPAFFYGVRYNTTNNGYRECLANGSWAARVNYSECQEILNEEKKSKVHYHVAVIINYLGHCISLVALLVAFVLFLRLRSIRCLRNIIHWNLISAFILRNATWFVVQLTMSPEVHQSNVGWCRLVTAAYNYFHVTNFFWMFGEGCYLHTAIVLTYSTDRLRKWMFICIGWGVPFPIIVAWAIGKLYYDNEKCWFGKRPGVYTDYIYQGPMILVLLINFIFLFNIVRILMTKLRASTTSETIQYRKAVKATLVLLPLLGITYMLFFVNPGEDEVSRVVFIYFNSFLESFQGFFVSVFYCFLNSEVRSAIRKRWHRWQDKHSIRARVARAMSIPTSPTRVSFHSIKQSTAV
Nature of the test: CRF1R agonist activation (EC50 / Emax), called comparative CRF binding. The class given is cell-based. The settings on record: for EC50: read-out: CRF1R EC50; for Emax: read-out: CRF1R Emax. An outline of the steps:
as §1

`CC[C@H](C)[C@H](N)C(=O)N[C@H](C(=O)N[C@@H](CC(C)C)C(=O)N[C@@H](CO)C(=O)N[C@@H](CC(C)C)C(=O)N[C@@H](CC(=O)O)C(=O)N[C@H](C(=O)N1CCC[C@H]1C(=O)N[C@H](C(=O)NCC(=O)N[C@@H](CC(C)C)C(=O)N[C@@H](CC(C)C)C(=O)N[C@@H](CCC(N)=O)C(=O)N[C@H](C(=O)N[C@@H](CC(C)C)C(=O)N[C@@H](CC(C)C)C(=O)N[C@@H](CCC(=O)O)C(=O)N[C@@H](CCC(N)=O)C(=O)N[C@@H](C)C(=O)N[C@@H](CCCNC(=N)N)C(=O)N[C@@H](C)C(=O)N[C@@H](CC(=O)O)C(=O)N[C@@H](C)C(=O)N[C@@H](C)C(=O)N[C@@H](CCCNC(=N)N)C(=O)N[C@@H](CCC(=O)O)C(=O)N[C@@H](CCC(N)=O)C(=O)N[C@@H](C)C(=O)N[C@H](C(=O)N[C@H](C(=O)N[C@@H](CC(N)=O)C(=O)N[C@@H](C)C(=O)N[C@@H](CCCNC(=N)N)C(=O)N[C@H](C(=O)N[C@@H](CC(C)C)C(=O)N[C@@H](C)C(=O)N[C@@H](CCCNC(=N)N)C(=O)N[C@H](C(N)=O)C(C)C)[C@@H](C)CC)[C@@H](C)O)[C@@H](C)O)[C@@H](C)CC)[C@@H](C)CC)C(C)C)C(C)C` [compound 130] (H-IVLSLDVPIGLLQILLEQARADAAREQATTNARILARV-NH2; N-terminus assumed): the 50% effective concentration (EC50) – broadly, the concentration that produces a half-maximal response – was 8.57 nM on CRF2R and greater than 100 nM at CRF1R. In addition, the maximal effect (Emax) – broadly, the greatest response seen or fitted, relative to the assay's reference – on CRF2R turned out to be 92%; at CRF1R it was 9%.

On to `CC[C@H](C)[C@H](N)C(=O)N[C@H](C(=O)N[C@@H](CC(C)C)C(=O)N[C@@H](CO)C(=O)N[C@@H](CC(C)C)C(=O)N[C@@H](CC(=O)O)C(=O)N[C@H](C(=O)N1CCC[C@H]1C(=O)N[C@H](C(=O)NCC(=O)N[C@@H](CC(C)C)C(=O)N[C@@H](CC(C)C)C(=O)N[C@@H](CCC(N)=O)C(=O)N[C@H](C(=O)N[C@@H](CC(C)C)C(=O)N[C@@H](CC(C)C)C(=O)N[C@@H](CCC(=O)O)C(=O)N[C@@H](CCC(N)=O)C(=O)N[C@@H](C)C(=O)N[C@@H](CCCCN)C(=O)N[C@@H](C)C(=O)N[C@@H](CC(=O)O)C(=O)N[C@@H](C)C(=O)N[C@@H](C)C(=O)N[C@@H](CCCNC(=N)N)C(=O)N[C@@H](CCC(=O)O)C(=O)N[C@@H](CCC(N)=O)C(=O)N[C@@H](C)C(=O)N[C@H](C(=O)N[C@H](C(=O)N[C@@H](CC(N)=O)C(=O)N[C@@H](C)C(=O)N[C@@H](CCCNC(=N)N)C(=O)N[C@H](C(=O)N[C@@H](CC(C)C)C(=O)N[C@@H](C)C(=O)N[C@@H](CCCNC(=N)N)C(=O)N[C@H](C(N)=O)C(C)C)[C@@H](C)CC)[C@@H](C)O)[C@@H](C)O)[C@@H](C)CC)[C@@H](C)CC)C(C)C)C(C)C` [compound 131] (H-IVLSLDVPIGLLQILLEQAKADAAREQATTNARILARV-NH2; N-terminus assumed), for which, at CRF2R, the EC50 amounted to 5.25 nM and the maximum response (Emax) came out at 91%. For the same compound, at CRF1R, the EC50 was greater than 100 nM and the Emax is 8%.

Take `CC[C@H](C)[C@H](N)C(=O)N[C@H](C(=O)N[C@@H](CC(C)C)C(=O)N[C@@H](CO)C(=O)N[C@@H](CC(C)C)C(=O)N[C@@H](CC(=O)O)C(=O)N[C@H](C(=O)N1CCC[C@H]1C(=O)N[C@H](C(=O)NCC(=O)N[C@@H](CC(C)C)C(=O)N[C@@H](CC(C)C)C(=O)N[C@@H](CCC(N)=O)C(=O)N[C@H](C(=O)N[C@@H](CC(C)C)C(=O)N[C@@H](CC(C)C)C(=O)N[C@@H](CCC(=O)O)C(=O)N[C@@H](CCC(N)=O)C(=O)N[C@@H](CCC(=O)O)C(=O)N[C@@H](CCCCN)C(=O)N[C@@H](CCC(=O)O)C(=O)N[C@@H](CCCCN)C(=O)N[C@@H](CCCCN)C(=O)N[C@@H](CCCNC(=N)N)C(=O)N[C@@H](CCCCN)C(=O)N[C@@H](CCC(=O)O)C(=O)N[C@H](C(=O)N[C@@H](CC(N)=O)C(=O)N[C@@H](C)C(=O)N[C@@H](CCCNC(=N)N)C(=O)N[C@H](C(=O)N[C@@H](CC(C)C)C(=O)N[C@@H](C)C(=O)N[C@@H](CCCNC(=N)N)C(=O)N[C@H](C(N)=O)C(C)C)[C@@H](C)CC)[C@@H](C)O)[C@@H](C)CC)[C@@H](C)CC)C(C)C)C(C)C` [compound 132] (H-IVLSLDVPIGLLQILLEQEKEKKRKETNARILARV-NH2; N-terminus assumed): the half-maximal effective concentration (EC50) is 7.53 nM at CRF2R and greater than 100 nM at CRF1R. Moreover, the Emax came out at 88% at CRF2R and 8% on CRF1R.

As for `CC[C@H](C)[C@H](N)C(=O)N[C@H](C(=O)N[C@@H](CC(C)C)C(=O)N[C@@H](CO)C(=O)N[C@@H](CC(C)C)C(=O)N[C@@H](CC(=O)O)C(=O)N[C@H](C(=O)N1CCC[C@H]1C(=O)N[C@H](C(=O)NCC(=O)N[C@@H](CC(C)C)C(=O)N[C@@H](CC(C)C)C(=O)N[C@@H](CCC(N)=O)C(=O)N[C@H](C(=O)N[C@@H](CC(C)C)C(=O)N[C@@H](CC(C)C)C(=O)N[C@@H](CCC(=O)O)C(=O)N[C@@H](CCC(N)=O)C(=O)N[C@@H](CCCNC(=N)N)C(=O)N[C@@H](CCCNC(=N)N)C(=O)N[C@@H](C)C(=O)N[C@@H](C)C(=O)N[C@@H](CCCNC(=N)N)C(=O)N[C@@H](CCC(=O)O)C(=O)N[C@@H](CCC(N)=O)C(=O)N[C@@H](C)C(=O)N[C@H](C(=O)N[C@H](C(=O)N[C@@H](CC(N)=O)C(=O)N[C@@H](C)C(=O)N[C@@H](CCCNC(=N)N)C(=O)N[C@H](C(=O)N[C@@H](CC(C)C)C(=O)N[C@@H](C)C(=O)N[C@@H](CCCNC(=N)N)C(=O)N[C@H](C(N)=O)C(C)C)[C@@H](C)CC)[C@@H](C)O)[C@@H](C)O)[C@@H](C)CC)[C@@H](C)CC)C(C)C)C(C)C` [compound 133] (H-IVLSLDVPIGLLQILLEQRRAAREQATTNARILARV-NH2; N-terminus assumed), on CRF2R, the EC50 is 12.2 nM and the Emax was found to be 88%. Also, at CRF1R, the EC50 is greater than 100 nM and the Emax turned out to be 4%.

Regarding `CC[C@H](C)[C@H](N)C(=O)N[C@H](C(=O)N[C@@H](CC(C)C)C(=O)N[C@@H](CO)C(=O)N[C@@H](CC(C)C)C(=O)N[C@@H](CC(=O)O)C(=O)N[C@H](C(=O)N1CCC[C@H]1C(=O)N[C@H](C(=O)NCC(=O)N[C@@H](CC(C)C)C(=O)N[C@@H](CC(C)C)C(=O)N[C@@H](CCC(N)=O)C(=O)N[C@H](C(=O)N[C@@H](CC(C)C)C(=O)N[C@@H](CC(C)C)C(=O)N[C@@H](CCC(=O)O)C(=O)N[C@@H](CCC(N)=O)C(=O)N[C@@H](C)C(=O)N[C@@H](C)C(=O)N[C@@H](C)C(=O)N[C@@H](C)C(=O)N[C@@H](CCCNC(=N)N)C(=O)N[C@@H](CCC(=O)O)C(=O)N[C@@H](CCC(N)=O)C(=O)N[C@@H](C)C(=O)N[C@H](C(=O)N[C@H](C(=O)N[C@@H](CC(N)=O)C(=O)N[C@@H](C)C(=O)N[C@@H](CCCNC(=N)N)C(=O)N[C@H](C(=O)N[C@@H](CC(C)C)C(=O)N[C@@H](C)C(=O)N[C@@H](CCCNC(=N)N)C(=O)N[C@H](C(N)=O)C(C)C)[C@@H](C)CC)[C@@H](C)O)[C@@H](C)O)[C@@H](C)CC)[C@@H](C)CC)C(C)C)C(C)C` [compound 134] (H-IVLSLDVPIGLLQILLEQAAAAREQATTNARILARV-NH2), the Emax was found to be 19% at CRF2R and 7% at CRF1R.

For the compound `CC[C@H](C)[C@H](N)C(=O)N[C@H](C(=O)N[C@@H](CC(C)C)C(=O)N[C@@H](CO)C(=O)N[C@@H](CC(C)C)C(=O)N[C@@H](CC(=O)O)C(=O)N[C@H](C(=O)N1CCC[C@H]1C(=O)N[C@H](C(=O)NCC(=O)N[C@@H](CC(C)C)C(=O)N[C@@H](CC(C)C)C(=O)N[C@@H](CCC(N)=O)C(=O)N[C@H](C(=O)N[C@@H](CC(C)C)C(=O)N[C@@H](CC(C)C)C(=O)N[C@@H](CCC(=O)O)C(=O)N[C@@H](CCC(N)=O)C(=O)N[C@@H](C)C(=O)N[C@@H](C)C(=O)N[C@@H](CCCNC(=N)N)C(=O)N[C@@H](C)C(=O)N[C@@H](C)C(=O)N[C@@H](CCCNC(=N)N)C(=O)N[C@@H](CCC(=O)O)C(=O)N[C@@H](CCC(N)=O)C(=O)N[C@@H](C)C(=O)N[C@H](C(=O)N[C@H](C(=O)N[C@@H](CC(N)=O)C(=O)N[C@@H](C)C(=O)N[C@@H](CCCNC(=N)N)C(=O)N[C@H](C(=O)N[C@@H](CC(C)C)C(=O)N[C@@H](C)C(=O)N[C@@H](CCCNC(=N)N)C(=O)N[C@H](C(N)=O)C(C)C)[C@@H](C)CC)[C@@H](C)O)[C@@H](C)O)[C@@H](C)CC)[C@@H](C)CC)C(C)C)C(C)C` [compound 135] (H-IVLSLDVPIGLLQILLEQAARAAREQATTNARILARV-NH2), the Emax at CRF2R came out at 76%; on CRF1R it was 6%.
